The assay concerns the target human NaV 1.8 channels stably expressed in HEK 293 cells (Homo sapiens (Human), UniProt Q9Y5Y9). Nature of the assay: Nav1.8 Qube automated patch-clamp assay. The settings on record: human NaV1.8 in HEK 293 cells, whole-cell voltage clamp, room temperature; read-out: IC50 values (nM) for Examples in the Nav1.8 Qube Assay. The class given is cell-based. The procedure, abridged:
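Whole-cell voltage clamp at room temperature on HEK293 cells; from −90 mV, a 10 s 1 Hz train of 20 ms pulses to 10 mV (repolarising to −67 mV) was applied. Peak currents at pulses 1 and 10 gave resting- and inactivated-state inhibition; IC50 fitted by Hill equation. Internal CsF/CsCl buffer.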
Background: The patch-clamp technique gives a direct electrical read-out from membranes.

The values that follow come from patent US20240246932A1 (Merck Sharp & Dohme LLC, priority 2021, published 2024).

Sequence of human NaV 1.8 channels stably expressed in HEK 293 cells (Q9Y5Y9 whole entry): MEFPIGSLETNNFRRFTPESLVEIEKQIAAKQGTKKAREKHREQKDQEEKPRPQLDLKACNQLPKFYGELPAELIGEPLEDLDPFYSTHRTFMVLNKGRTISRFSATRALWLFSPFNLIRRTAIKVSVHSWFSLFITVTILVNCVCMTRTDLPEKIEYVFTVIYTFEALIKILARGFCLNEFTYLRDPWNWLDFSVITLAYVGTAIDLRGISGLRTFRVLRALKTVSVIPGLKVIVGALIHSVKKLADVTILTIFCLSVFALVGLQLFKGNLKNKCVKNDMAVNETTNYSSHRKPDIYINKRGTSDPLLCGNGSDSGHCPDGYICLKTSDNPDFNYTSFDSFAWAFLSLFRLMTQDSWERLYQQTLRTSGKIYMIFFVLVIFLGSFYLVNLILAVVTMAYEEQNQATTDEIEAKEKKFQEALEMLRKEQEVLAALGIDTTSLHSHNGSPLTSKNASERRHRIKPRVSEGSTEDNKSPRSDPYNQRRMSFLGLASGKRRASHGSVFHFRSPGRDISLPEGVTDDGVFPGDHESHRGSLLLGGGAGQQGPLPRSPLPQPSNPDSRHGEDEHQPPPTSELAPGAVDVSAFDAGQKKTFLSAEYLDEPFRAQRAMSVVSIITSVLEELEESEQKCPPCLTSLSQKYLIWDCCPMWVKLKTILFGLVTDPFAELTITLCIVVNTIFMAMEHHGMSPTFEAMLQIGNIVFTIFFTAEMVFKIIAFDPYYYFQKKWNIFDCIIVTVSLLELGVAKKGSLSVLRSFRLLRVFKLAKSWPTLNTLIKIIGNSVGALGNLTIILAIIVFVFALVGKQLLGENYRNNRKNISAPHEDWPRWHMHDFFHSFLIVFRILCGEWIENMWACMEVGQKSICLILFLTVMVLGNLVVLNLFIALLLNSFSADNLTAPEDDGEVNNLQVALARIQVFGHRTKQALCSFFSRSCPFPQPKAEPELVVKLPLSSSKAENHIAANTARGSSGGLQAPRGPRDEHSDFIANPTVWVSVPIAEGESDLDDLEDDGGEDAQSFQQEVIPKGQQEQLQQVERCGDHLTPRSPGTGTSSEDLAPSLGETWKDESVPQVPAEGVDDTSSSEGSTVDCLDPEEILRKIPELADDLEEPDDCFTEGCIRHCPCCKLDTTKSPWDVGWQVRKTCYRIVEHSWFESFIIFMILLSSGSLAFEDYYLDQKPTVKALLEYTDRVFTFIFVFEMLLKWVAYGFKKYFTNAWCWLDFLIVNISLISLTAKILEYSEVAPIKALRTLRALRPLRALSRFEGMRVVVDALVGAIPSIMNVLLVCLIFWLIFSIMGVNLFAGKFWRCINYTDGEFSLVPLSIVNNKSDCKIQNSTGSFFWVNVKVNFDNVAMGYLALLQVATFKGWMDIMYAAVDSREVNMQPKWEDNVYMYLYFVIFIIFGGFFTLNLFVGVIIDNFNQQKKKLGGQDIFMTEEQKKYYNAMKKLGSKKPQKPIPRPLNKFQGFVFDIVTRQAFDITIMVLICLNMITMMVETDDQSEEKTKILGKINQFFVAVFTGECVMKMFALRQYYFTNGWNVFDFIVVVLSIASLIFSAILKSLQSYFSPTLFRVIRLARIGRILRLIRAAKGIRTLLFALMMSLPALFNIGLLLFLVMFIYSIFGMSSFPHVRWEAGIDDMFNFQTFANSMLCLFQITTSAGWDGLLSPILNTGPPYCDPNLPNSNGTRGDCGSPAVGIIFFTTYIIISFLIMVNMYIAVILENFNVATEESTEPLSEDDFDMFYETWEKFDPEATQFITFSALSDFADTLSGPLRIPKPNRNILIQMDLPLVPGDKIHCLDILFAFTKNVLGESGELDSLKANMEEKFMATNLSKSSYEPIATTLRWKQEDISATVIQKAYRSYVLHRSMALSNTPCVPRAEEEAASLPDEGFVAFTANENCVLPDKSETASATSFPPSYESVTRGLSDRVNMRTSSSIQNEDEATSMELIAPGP

Turning to `C[C@@H]1C(=O)NCCN1C(=O)NC(c1ccc(OCC(F)(F)F)nc1)c1ccc(F)c(Cl)c1` (single isomer, unassigned) [Example 3B, (2R)-N-((S or R)-(3-chloro-4-fluorophenyl)(6-(2,2,2-trifluoro-ethoxy)pyridin-3-yl)methyl)-2-methyl-3-oxopiperazine-1-carboxamide], the IC50 amounted to 21.9 nM.

As for `C[C@@H]1C(=O)NCCN1C(=O)NC(c1cnc(OC(F)F)nc1)c1ccc(F)c(Cl)c1F` (single isomer, unassigned) [Example 74B, (2R)-N-((S or R)-(3-chloro-2,4-difluorophenyl)(2-(difluoromethoxy)pyrimidin-5-yl)methyl)-2-methyl-3-oxopiperazine-1-carboxamide], the IC50 is 1320 nM. On to `C[C@@H]1C(=O)NCCN1C(=O)NC(c1ccc(C(F)(F)F)nc1)c1ccc(Cl)c(C(F)(F)F)n1` (single isomer, unassigned) [Example 81B, (2R)-N-((S or R)-(5-chloro-6-(trifluoromethyl)pyridin-2-yl)(6-(trifluoro-methyl)pyridin-3-yl)methyl)-2-methyl-3-oxopiperazine-1-carboxamide], for which the IC50 was determined as 110 nM. For `C[C@@H]1C(=O)NCCN1C(=O)NC(c1cnc(C(F)(F)F)s1)c1ccc(F)c(Cl)c1F` (single isomer, unassigned) [Example 62B] the value was 2.45 nM; for `CC(C)C1C(=O)NCCN1C(=O)NC(c1ccc(C(F)(F)F)nc1)c1ccc(F)c(Cl)c1F` (single isomer, unassigned) [Example 39B, N-((R or S)-(3-chloro-2,4-difluorophenyl)(6-(trifluoromethyl)pyridin-3-yl)methyl)-(S or R)-2-isopropyl-3-oxo-piperazine-1-carboxamide], 15.2 nM; for `C[C@@H]1C(=O)NCCN1C(=O)NC(c1ccc(Cl)cc1)c1ccnc(C(F)(F)F)n1` (single isomer, unassigned) [Example 68B], 761 nM. For `C[C@@H]1C(=O)NCCN1C(=O)NC(c1cnc(C2CC2)c(Cl)c1)c1ccc(F)c(Cl)c1F` (single isomer, unassigned) [Example 27A, (2R)-N-((R or S)-(3-chloro-2,4-difluoro-phenyl)(5-chloro-6-cyclopropylpyridin-3-yl)methyl)-2-methyl-3-oxopiperazine-1-carboxamide] the value was 52.6 nM; for `C[C@@H]1C(=O)NCCN1C(=O)NC(c1ccc(Cl)cc1)c1cccc(C(F)(F)F)n1` (single isomer, unassigned) [Example 9B, (2R)-N-((S or R)-(4-chlorophenyl)(6-(trifluoromethyl)pyridin-2-yl)methyl)-2-methyl-3-oxopiperazine-1-carboxamide], 8.03 nM; for `CC1(C)C(=O)NCCN1C(=O)NC(c1ccc(F)c(Cl)c1)c1cccc(C(F)(F)F)n1` (single isomer, unassigned) [Example 43, N-((R or S)-(3-chloro-4-fluorophenyl)(6-(trifluoromethyl)pyridin-2-yl)methyl)-2,2-dimethyl-3-oxopiperazine-1-carboxamide], 230 nM. For `C[C@@H]1CN(C(=O)NC(c2ccc(F)c(Cl)c2)c2cccc(C(F)(F)F)n2)CC(=O)N1` (single isomer, unassigned) [Example 46B, (3R)-N-((S or R)-(3-chloro-4-fluoro-phenyl)(6-(trifluoro-methyl)pyridin-2-yl)methyl)-3-methyl-5-oxopiperazine-1-carboxamide] the value was 506 nM; for `C[C@@H]1C(=O)NCCN1C(=O)NC(c1ccc(C(F)(F)F)nc1)c1ccc(F)c(Cl)c1` (single isomer, unassigned) [Example 16B, (2R)-N-((S or R)-(3-chloro-4-fluorophenyl)(6-(trifluoromethyl)pyridin-3-yl)methyl)-2-methyl-3-oxopiperazine-1-carboxamide], 31.7 nM; for `C[C@@H]1C(=O)NCCN1C(=O)NC(c1ccc(OC(F)F)nc1)c1ccc(F)c(Cl)c1` (single isomer, unassigned) [Example 73A, (2R)-N-((R or S)-(3-chloro-4-fluorophenyl)(6-(difluoromethoxy)pyridin-3-yl)methyl)-2-methyl-3-oxopiperazine-1-carboxamide], 7.01 nM. Turning to `C[C@@H]1C(=O)NCCN1C(=O)NC(c1cnc(C(F)(F)F)c(Cl)c1)c1ccc(F)c(Cl)c1F` (single isomer, unassigned) [Example 35, (2R)-N-((R or S)-(3-chloro-2,4-difluorophenyl)(5-chloro-6-(trifluoromethyl)pyridin-3-yl)methyl)-2-methyl-3-oxopiperazine-1-carboxamide], the IC50 stood at 1.13 nM. In the case of `C[C@@H]1C(=O)NCCN1C(=O)NC(c1ccc(F)c(Cl)c1)c1ccc(F)c(OCC(F)(F)F)n1` (single isomer, unassigned) [Example 70B], the IC50 came out at 6.87 nM. For `C[C@@H]1C(=O)NCCN1C(=O)NC(c1ccc(Cl)cc1)c1ccnc(C(F)(F)F)n1` (single isomer, unassigned) [Example 68A] the value was 34.9 nM; for `C[C@@H]1C(=O)NCCN1C(=O)NC(c1ccc(F)c(Cl)c1)c1ccc(F)c(OCC(F)(F)F)n1` (single isomer, unassigned) [Example 70A], 51.4 nM. For `CCC1C(=O)NCCN1C(=O)NC(c1ccc(C(F)(F)F)nc1)c1ccc(F)c(Cl)c1F` (single isomer, unassigned) [Example 40A, N-((R or S)-(3-chloro-2,4-difluorophenyl)(6-(trifluoromethyl)pyridin-3-yl)methyl)-(R or S)-2-ethyl-3-oxopiperazine-1-carboxamide] the value was 729 nM. In the case of `O=C1CN(C(=O)NC(c2ccc(F)c(Cl)c2)c2ccc(Cl)c(C(F)(F)F)n2)CCN1` (single isomer, unassigned) [Example 80, N-((R or S)-(3-chloro-4-fluorophenyl)(5-chloro-6-(trifluoromethyl)pyridin-2-yl)methyl)-3-oxopiperazine-1-carboxamide] it was 1.9 nM. With `C[C@@H]1C(=O)NCCN1C(=O)NC(c1cnc(OCC(F)(F)F)nc1)c1ccc(F)c(Cl)c1F` (single isomer, unassigned) [Example 12B], the IC50 is 501 nM. For `C[C@@H]1C(=O)NCCN1C(=O)NC(c1ccc(OCC(F)(F)F)nc1)c1ccc(F)c(C(F)(F)F)n1` (single isomer, unassigned) [Example 50A, (2R)-N-((R or S)-(5-fluoro-6-(trifluoro-methyl)pyridin-2-yl)(6-(2,2,2-trifluoro-ethoxy)pyridin-3-yl)methyl)-2-methyl-3-oxopiperazine-1-carboxamide] the value was 73.7 nM; for `C[C@@H]1C(=O)NCCN1C(=O)NC(c1ccc(F)c(Cl)c1)c1cnc(C(F)(F)F)c(Cl)c1` (single isomer, unassigned) [Example 26A, (2R)-N-((R or S)-(3-chloro-4-fluoro-phenyl)(5-chloro-6-(trifluoromethyl)pyridin-3-yl)methyl)-2-methyl-3-oxopiperazine-1-carboxamide], 1.89 nM. In the case of `C[C@@H]1C(=O)NCCN1C(=O)NC(c1ccc(OC(F)(F)F)c(F)c1)c1ccc(F)c(C(F)(F)F)n1` (single isomer, unassigned) [Example 56B, (2R)-N-((S or R)-(3-fluoro-4-(trifluoro-methoxy)phenyl)(5-fluoro-6-(trifluoro-methyl)pyridin-2-yl)methyl)-2-methyl-3-oxopiperazine-1-carboxamide] it was 1.31 nM; in that of `O=C1CN(C(=O)NC(c2cnc(C(F)(F)F)c(Cl)c2)c2ccc(F)c(Cl)c2F)CCN1` (single isomer, unassigned) [Example 36, N-((R or S)-(3-chloro-2,4-difluorophenyl)(5-chloro-6-(trifluoro-methyl)pyridin-3-yl)methyl)-3-oxopiperazine-1-carboxamide], 6.97 nM; in that of `C[C@@H]1C(=O)NCCN1C(=O)NC(c1ccc(C2CC2)nc1)c1ccc(F)c(Cl)c1F` (single isomer, unassigned) [Example 33B, (2R)-N-((S or R)-(3-chloro-2,4-difluoro-phenyl)(6-cyclo-propylpyridin-3-yl)methyl)-2-methyl-3-oxopiperazine-1-carboxamide], 514 nM. For `C[C@@H]1C(=O)NCCN1C(=O)NC(c1ccc(C#N)cc1)c1ccc(Cl)c(C(F)(F)F)n1` (single isomer, unassigned) [Example 76A] the value was 5.18 nM; for `C[C@@H]1C(=O)NCCN1C(=O)NC(c1ccc(Cl)cc1)c1ccc(C(F)(F)F)nc1` (single isomer, unassigned) [Example 17A, (2R)-N-((R or S)-(4-chlorophenyl)(6-(trifluoromethyl)pyridin-3-yl)methyl)-2-methyl-3-oxopiperazine-1-carboxamide], 101 nM.

Take `C[C@H]1C(=O)NCCN1C(=O)NC(c1ccc(F)c(Cl)c1)c1cccc(C(F)(F)F)n1` (single isomer, unassigned) [Example 45, (2S)-N-((R or S)-(3-chloro-4-fluoro-phenyl)(6-(trifluoro-methyl)pyridin-2-yl)methyl)-2-methyl-3-oxopiperazine-1-carboxamide]: the IC50 came to 1700 nM. For `C[C@@H]1C(=O)NCCN1C(=O)NC(c1cnc(C(F)(F)F)c(Cl)c1)c1csc(C(F)(F)F)n1` (single isomer, unassigned) [Example 84A, (2R)-N-((R or S)-(5-chloro-6-(trifluoromethyl)pyridin-3-yl)(2-(trifluoromethyl)thiazol-4-yl)methyl)-2-methyl-3-oxopiperazine-1-carboxamide] the value was 16.2 nM; for `C[C@@H]1C(=O)NCCN1C(=O)NC(c1ccc(F)c(Cl)c1)c1ccn(C(F)F)n1` (single isomer, unassigned) [Example 66B], 82.3 nM.

The term IC50 denotes the concentration needed to halve the response being measured.
